Patent US4820867A, “Phenoxypropoxy halophenylacetic acids as leukotriene antagonists” (Merck Frosst Canada, Inc., priority 1986, dated 1989)

System: leukotriene D4 induced bronchoconstriction
Test: inhibition of leukotriene D4 induced bronchoconstriction in anaesthetized guinea pigs (modified Konzett-Rossler)
Type: in vivo, guinea pig
Set-up: % Inhibition After 30 Min.: concentration or dose not given beside the values
Details: for ED50: Cavia porcellus, 10 min, directly into the duodenum, dose producing 50% inhibition when given 10 minutes before LTD4, read-out: ED50 (median effective dose), inhibition of LTD4 induced bronchoconstriction; for % Inhibition After 30 Min.: inhibition of LTD4 induced bronchoconstriction, intraduodenal, 30 min after antagonist administration
Protocol: The antagonist activity of the compounds of the present invention was determined by measuring their ability to inhibit leukotriene D4 induced bronchoconstriction in anaesthetized guinea pigs (modified Konzett-Rossler). When administrated directly into the duodenum (oral activity) they are active at 2.5-5 mg/kg. Oral activity is defined as the dose producing 50% inhibition when given 10 minutes before LTD4. Percent inhibition was determined at 10 minutes and also at 30 and 50 minutes after antagonist administration. The time interval between LTD4 administration was kept constant at 20 minutes in all experiments.
Table I is a comparison between three known leukotriene antagonists (entries 1, 2 and 3, see: G.B. Pat. No. 2,058,785, supra) and several compounds of the present invention (4-9).

Row | SMILES | ED50 [mg/kg] | % Inhibition After 30 Min. [%]
1 | CCCc1c(OCCCOc2ccc(C(=O)O)cc2)ccc(C(C)=O)c1O [Entry 1, reference compound] | 10 | 59
2 | CCCc1c(OCCCOc2cccc(CCC(=O)O)c2)ccc(C(C)=O)c1O [Entry 2, reference compound] | 10 | 32
3 | CCCc1c(OCCCOc2ccc(C=CC(=O)O)cc2)ccc(C(C)=O)c1O [Entry 3, reference compound] | 20 | 56
4 | CCCc1c(OCCCOc2ccc(CC(=O)O)cc2F)ccc(C(C)=O)c1O [Entry 4, 4-(3-(4-Acetyl-3-hydroxy-2-propylphenoxy)-propoxy)-3-fluorobenzene acetic acid] | 10 | 100
5 | CCCc1c(OCC(O)COc2ccc(CC(=O)O)cc2F)ccc(C(C)=O)c1O (stereo not drawn) [Entry 5, 4-(3-(4-Acetyl-3-hydroxy-2-propylphenoxy)-2-hydroxypropoxy)-3-fluorobenzeneacetic acid] | 2.5 | 50
6 | CCCc1c(OCC(O)COc2ccc(CC(=O)O)cc2Br)ccc(C(C)=O)c1O (stereo not drawn) [Entry 6, 4-(3-(4-Acetyl-3-hydroxy-2-propylphenoxy)-2-hydroxypropoxy)-3-bromobenzene acetic acid] | 2.5 | 35
7 | CCCc1c(OCC(O)COc2ccc(CC(=O)O)cc2Cl)ccc(C(C)=O)c1O (stereo not drawn) [Entry 7, 4-(3-(4-Acetyl-3-hydroxy-2-propylphenoxy)-2-hydroxypropoxy)-3-chlorobenzeneacetic acid] | 10 | 63
8 | CCCc1c(OCCCOc2ccc(CC(=O)O)cc2Cl)ccc(C(C)=O)c1O [Entry 8, 4-(3-(4-acetyl-3-hydroxy-2-propylphenoxy)propoxy)-3-chlorobenzene acetic] | 5 | 60
9 | CCCc1c(OCCCOc2ccc(CC(=O)O)cc2Br)ccc(C(C)=O)c1O [Entry 9, 4-(3-(4-Acetyl-3-hydroxy-2-propylphenoxy)-propoxy)-3-bromobenzene acetic acid] | 10 | 87
